Laboratory results taken from BindingDB's records for doi:10.1021/jm020046y (National Institute of Diabetes, 2002).

Key:
[1] = Dissociation constant at P2X purinoceptor 1 from guinea pig taenia coli
P2X purinoceptor 7 = target: T1, P2X purinoceptor 7 (Rattus norvegicus, UniProt Q64663); assay: The compound was evaluated for antagonist activity against recombinant rat P2X purinoceptor 7 (P2X7)
T1 sequence (Q64663 whole entry): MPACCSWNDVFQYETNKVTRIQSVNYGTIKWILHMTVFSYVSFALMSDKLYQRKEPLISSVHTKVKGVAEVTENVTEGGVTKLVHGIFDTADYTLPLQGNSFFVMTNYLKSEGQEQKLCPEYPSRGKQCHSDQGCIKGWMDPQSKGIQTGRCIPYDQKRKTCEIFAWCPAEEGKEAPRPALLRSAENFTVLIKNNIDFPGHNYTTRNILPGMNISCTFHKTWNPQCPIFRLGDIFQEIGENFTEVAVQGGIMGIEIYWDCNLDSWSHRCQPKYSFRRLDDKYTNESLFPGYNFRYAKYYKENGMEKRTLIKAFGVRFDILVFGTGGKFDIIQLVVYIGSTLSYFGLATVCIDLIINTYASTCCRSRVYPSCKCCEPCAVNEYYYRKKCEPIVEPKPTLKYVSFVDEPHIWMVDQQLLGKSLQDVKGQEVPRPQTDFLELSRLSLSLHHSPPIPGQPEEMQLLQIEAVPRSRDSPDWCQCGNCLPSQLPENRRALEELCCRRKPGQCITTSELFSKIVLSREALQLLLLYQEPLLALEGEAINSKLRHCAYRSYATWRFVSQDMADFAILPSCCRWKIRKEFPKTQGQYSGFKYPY

P2Y purinoceptor 1 = P2Y purinoceptor 1 (Meleagris gallopavo, UniProt P49652); assay: Evaluated for agonist activity against phospholipase C coupled P2Y purinoceptor 1 (P2Y1) of turkey erythrocytes
[2] = target: P2X purinoceptor 3 (Rattus norvegicus) (UniProt P49654); assay: The compound was evaluated for antagonist activity against recombinant rat P2X purinoceptor 3 (P2X3) at 10 uM,expressed in Xenopus oocytes
[3] = Dissociative constant against P2Y purinoceptor (P2Y) was reported; range 10-214
[4] = target: P2X purinoceptor 2 (Rattus norvegicus); assay: The compound was evaluated for antagonist activity against recombinant rat P2X purinoceptor 2 (P2X2) at 30 uM
[5] = The compound was evaluated for antagonist activity against recombinant rat P2X […] receptor 10 uM
[6] = target: P2X purinoceptor 3 (Rattus norvegicus) (UniProt P49654); assay: The compound was evaluated for antagonist activity against recombinant rat P2X purinoceptor 3 (P2X3) at 3 uM, expressed in Xenopus oocytes

Sequence of P2X purinoceptor 3 (Rattus norvegicus) (P49654 whole entry, looked up): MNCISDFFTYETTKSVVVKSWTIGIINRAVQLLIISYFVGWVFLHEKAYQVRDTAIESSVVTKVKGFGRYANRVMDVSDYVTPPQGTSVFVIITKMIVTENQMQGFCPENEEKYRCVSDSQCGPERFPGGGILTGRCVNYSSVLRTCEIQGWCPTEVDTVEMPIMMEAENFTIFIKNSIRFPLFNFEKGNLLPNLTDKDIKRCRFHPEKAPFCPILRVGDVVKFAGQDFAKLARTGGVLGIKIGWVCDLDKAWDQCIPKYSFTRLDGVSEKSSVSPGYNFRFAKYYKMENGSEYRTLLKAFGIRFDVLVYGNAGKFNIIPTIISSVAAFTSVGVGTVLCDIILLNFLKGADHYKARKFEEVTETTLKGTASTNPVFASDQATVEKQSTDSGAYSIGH
Sequence of P2Y purinoceptor 1 (P49652 whole entry): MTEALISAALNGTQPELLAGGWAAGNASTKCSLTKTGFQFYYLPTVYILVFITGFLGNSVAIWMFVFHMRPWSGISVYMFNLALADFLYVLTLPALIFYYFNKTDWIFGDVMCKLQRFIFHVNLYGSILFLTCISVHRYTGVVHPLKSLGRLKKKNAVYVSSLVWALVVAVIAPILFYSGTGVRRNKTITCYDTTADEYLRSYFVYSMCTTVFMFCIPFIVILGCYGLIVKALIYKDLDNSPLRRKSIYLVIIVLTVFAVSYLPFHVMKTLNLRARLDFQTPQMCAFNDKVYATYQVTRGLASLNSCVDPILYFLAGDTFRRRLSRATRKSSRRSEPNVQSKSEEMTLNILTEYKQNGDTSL

**Q.** Which Kd [1] does the source give for `C=CS(=O)(=O)c1cccc(Nc2cc(S(=O)(=O)O)c(N)c3c2C(=O)c2ccccc2C3=O)c1` [Uniblue A] here?
**A.** Its Kd is 800 nM.

**Q.** What does the source list for `CCOc1ccc(Nc2ccc([C+](c3ccc(N(CC)Cc4cccc(S(=O)(=O)[O-])c4)cc3C)c3ccc(N(CC)Cc4cccc(S(=O)(=O)O)c4)cc3C)cc2)cc1` [Brilliant Blue]?
**A.** EC50 (P2X purinoceptor 7): 400 nM; EC50 (P2Y purinoceptor 1): 0.1 nM

**Q.** For `CCCCCCSc1nc(N)c2ncn([C@@H]3O[C@H](COP(=O)(O)O)[C@@H](O)[C@H]3O)c2n1` [((2R,3S,4R,5R)-5-(6-amino-2-(hexylthio)-9H-purin-9-yl)-3,4-dihydroxytetrahydrofuran-2-yl)methyl dihydrogen phosphate], which EC50 [2] is on record?
**A.** The EC50 was 350 nM.

**Q.** For `O=S(=O)(O)c1cc(N=C=S)ccc1/C=C/c1ccc(N=C=S)cc1S(=O)(=O)O` [DIDS], which Kd [3] is on record?
**A.** Its Kd is 10000 nM.

**Q.** For `O=c1[nH]cnc2c1ncn2[C@@H]1O[C@H](COP(=O)(O)OP(=O)(O)OP(=O)(O)OP(=O)(O)OP(=O)(O)OC[C@H]2O[C@@H](n3cnc4c(=O)[nH]cnc43)[C@H](O)[C@@H]2O)[C@@H](O)[C@H]1O` [Ip5I], which IC50 [4] is on record?
**A.** The IC50 was > 30000 nM.

**Q.** And the IC50 [5]?
**A.** Its IC50 is 2800 nM.

**Q.** With `Nc1ccc(CCSc2nc(N)c3ncn([C@@H]4O[C@H](COP(=O)(O)OP(=O)(O)OP(=O)(O)O)[C@@H](O)[C@H]4O)c3n2)cc1` [PAPET-ATP] as the compound, how does the EC50 [2] read?
**A.** Its EC50 is 17 nM.

**Q.** For `Nc1ncnc2c1ncn2[C@@H]1O[C@H](CO[P@@](=O)(O)O[P@@](=O)(O)CP(=O)(O)O)[C@@H](O)[C@H]1O`, which EC50 [6] is on record?
**A.** Its EC50 is 9200 nM.
